We go through 4 compounds from publication PMC9964140, “Exploration of Succinimide Derivative as a Multi-Target, Anti-Diabetic Agent: In Vitro and In Vivo Approaches” (Molecules, 2023).

Structures are written as SMILES.

A short description of one series: Antioxidant (DPPH) test. Particulars: DPPH free radical scavenging. The procedure:
For identifying free radicals and the scavenging potential of new organic compounds, Sigma Aldrich USA’s DPPH was employed. Methanol was employed as a solvent for preparing test samples of varying strengths of the examined substances. Two milliliters of the test sample’s variation strength were blended separately with two milliliters of the DPPH solution and 0.002% methanol. After being stored in the dark and at room temperature for 30 min, test tubes were examined using a UV spectrophotometer to measure the absorbance at 517 nm. As is customary, ascorbic acid was employed here, and the procedure was then repeated three times. Utilizing the formula below, the tested specimen’s scavenging activity was calculated: Scavenging activity % = (A − B)/A × 100. The letters “A” and “B” stand for the absorbance of the DPPH and the test sample, respectively. By plotting a graph of the scavenging effect of the tested compounds versus the concentration of the corresponding solution, IC50 values were determined.

For series [1], the system named is STZ-induced diabetic mice. Description: Body weight, insulin, lipid profile, serum markers and histopathology in STZ-induced diabetic mice. Type of series: in vivo. As to conditions: for histopathology of liver, kidney and pancreas: H & E staining; for effect on body weight of diabetic mice: treated; for insulin levels: treated STZ-induced diabetic mice, untreated diabetic group 2.5 ± 0.15, normal control 13.5 ± 0.95. The procedure:
(§1) The mice were placed into 4 groups, with 5 animals in each group having elevated blood glucose levels. Group I was the normal group, which had normal blood glucose levels and was given saline. Group II was treated with a Tween 80 solution; in this group, diabetic mice were kept. Glibenclamide was administered at a 500 μM/Kg dose to group III, which was the control group with diabetic mice. Group IV, the final group, received treatment with different concentrations of the produced substance. The mice were killed after three weeks (21 days) by cervical decapitation, and blood samples and organs were taken for H & E staining-based histological analysis and for bioassays.

The next series addresses T1, PTP1 B (Homo sapiens, UniProt P18031).
T1 sequence (P18031 1-435): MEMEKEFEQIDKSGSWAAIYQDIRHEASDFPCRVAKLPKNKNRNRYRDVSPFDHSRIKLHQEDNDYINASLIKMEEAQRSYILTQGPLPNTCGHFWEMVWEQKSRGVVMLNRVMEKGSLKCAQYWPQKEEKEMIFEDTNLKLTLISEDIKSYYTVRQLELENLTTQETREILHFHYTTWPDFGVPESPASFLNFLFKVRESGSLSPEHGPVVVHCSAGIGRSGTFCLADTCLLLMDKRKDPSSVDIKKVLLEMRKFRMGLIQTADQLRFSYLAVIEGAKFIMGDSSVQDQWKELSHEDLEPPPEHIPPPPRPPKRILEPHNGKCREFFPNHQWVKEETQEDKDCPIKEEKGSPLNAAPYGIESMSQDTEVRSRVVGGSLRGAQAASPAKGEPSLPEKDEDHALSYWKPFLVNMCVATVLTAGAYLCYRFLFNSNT
Description: Protein tyrosine phosphatase 1 B (PTP1 B) test. The class given is biochemical. Particulars: ± SEM; pH 7, 40 min at 27 °C.

For another series, the target named is α-Amylase. Description: Alpha-amylase test. The class given is biochemical. As to conditions: ± SEM.
Another series addresses DPP-4 (Homo sapiens, UniProt P27487). Description: Dipeptidyl peptidase-4 (DPP-4) fluorescence probe test. Type of series: biochemical. Particulars: ± SEM; read-out: IC50 DPP4. On the procedure: Our compound’s inhibitory impact on the DPP-4 target was identified by a fluorescence probe in vitro assay. […] In a 96-well microplate reader, the test results were recorded. At first, various concentrations of the chemical were used to determine its action. Then, in accordance with the normal approach, a dose-dependent response was identified in order to estimate the IC50 value.

Another series deals with mice. As to conditions: mouse, in vivo. On the procedure: Prior to putting the drug through tests on lab animals, its acute toxicity was determined. Two groups of experimental mice, (1) the control group and (2) the test group, were used for this experiment. Each group consisted of five mice. It was conducted intraperitoneally with different concentrations of the chemical. The mice were then closely examined for three days in the animal home after the chemical was administered to check for death or any unfavorable reactions.

The test system of another series is diabetic mice. Description: In vivo anti-diabetic assay (blood glucose, 21 days). Details: species or system albino mice.
Text: For in vivo anti-diabetic efficacy, albino mice having weight of 30 g were employed. The animals utilized in experiments were compliant with the 2008 Animal Bye-Laws of the Pharmacy Department at the University of Malakand in Pakistan (Scientific Procedure Issue-I). The animals were handled according to accepted practices and housed in an animal facility during the experimental procedures. The animals were put to death following the experiment in accordance with AVMA rules.
The mice were given 10% alloxan monohydrate at a dose of 150 mg/kg body weight through IP in order to induce diabetes. The control group received a normal saline IP during this trial. Following the administration of alloxan, the animals’ blood glucose levels were checked using a glucometer. According to the protocols, in the in vivo study, mice with elevated blood sugar concentrations were also utilized.
as §1

In the next series the target is α-Glucosidase. Description: Alpha-glucosidase test. The class given is biochemical. As to conditions: ± SEM. The procedure:
A concentration of 0.5 mg/11 mL distilled water and a substrate solution of glucopyranoside at 15 mg/10 mL distilled water concentration were added to […] of a phosphate buffer and kept at 37 °C for 20 min, respectively, to prepare the sample. To prepare the control, 1200 μL of the phosphate buffer was added to the test tube. Next, 400 μL of the substrate solution (glucopyranoside 15 mg/10 mL distilled water) and 800 µL of an enzyme solution were mixed. At last, the temperature was kept at 37 °C for 20 min.

Setting [2] is: diabetic mice, compared to diabetic mice not given the medication.

Sequence of DPP-4 (P27487 whole entry, species assumed): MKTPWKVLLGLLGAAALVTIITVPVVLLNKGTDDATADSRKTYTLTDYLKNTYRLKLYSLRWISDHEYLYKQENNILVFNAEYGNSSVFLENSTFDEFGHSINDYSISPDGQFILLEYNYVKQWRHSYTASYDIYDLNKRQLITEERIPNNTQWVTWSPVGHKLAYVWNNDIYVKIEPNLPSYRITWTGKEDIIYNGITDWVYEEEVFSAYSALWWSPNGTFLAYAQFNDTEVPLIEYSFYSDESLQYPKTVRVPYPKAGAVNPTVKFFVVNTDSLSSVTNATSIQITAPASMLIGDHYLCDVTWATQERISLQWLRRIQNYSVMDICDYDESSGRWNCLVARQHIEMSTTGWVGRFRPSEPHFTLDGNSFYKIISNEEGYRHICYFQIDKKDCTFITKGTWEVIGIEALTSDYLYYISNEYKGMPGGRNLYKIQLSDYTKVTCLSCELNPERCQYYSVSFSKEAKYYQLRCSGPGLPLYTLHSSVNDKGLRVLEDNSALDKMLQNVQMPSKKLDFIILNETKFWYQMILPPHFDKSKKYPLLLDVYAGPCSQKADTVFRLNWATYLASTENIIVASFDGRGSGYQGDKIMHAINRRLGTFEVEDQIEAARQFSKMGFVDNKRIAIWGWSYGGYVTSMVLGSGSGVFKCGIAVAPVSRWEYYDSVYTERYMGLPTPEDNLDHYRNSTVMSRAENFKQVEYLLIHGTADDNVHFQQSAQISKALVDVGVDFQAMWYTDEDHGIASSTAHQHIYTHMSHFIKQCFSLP
Description for PTP1 B: It is performed with a buffer solution of 3,3-dimethyl glutarate at a pH of 7. Additionally, a PTP1 B 10 mM solution, p-NO2-phenol phosphate of 1 mM, and numerous additional concentrations of the substance were made. As a result, the mixtures were incubated for 40 min at 27 °C. Then, measurements of the absorbances were conducted at 405 nm after the designated 40 min.
Description for α-Amylase: In order to evaluate the alpha-amylase test, standardized reporting protocols were followed [35]. In order to combine the enzyme and the phosphate buffer, test samples of varying strengths were added to the enzymatic solution. Incubation of the sample was followed by admixing of starch to both the control and test solutions and a dinitro salicylic acid solution. The sample combination was then maintained in a boiling water bath for a short period of time, and a microplate reader was used to measure the absorbance at 656 nm.
The formula below was used to calculate the α-amylase enzyme’s percentage inhibition capability: Percent Inhibition=Absorbance of Control − Absorbance of Sample ×100/Absorbance of Control

In the series “Antioxidant (DPPH) test”, `O=C1O[C@H]([C@@H](O)CO)C(O)=C1O` [Ascorbic acid, reference compound] came in with a half-maximal inhibitory concentration (IC50) of 1.44 ± 0.2 µM.

For `COc1cc(CC(C)=O)ccc1OC1CC(=O)N(Cc2ccccc2)C1=O` (stereo not shown) [Compound 3, 1-benzyl-3-(2-methoxy-4-(2-oxopropyl)phenoxy)pyrrolidine-2,5-dione], the body weight gain in series [1] (STZ + compound 3 group (Tg-5), final vs initial day, diabetic group lost 1.9 ± 0.05 g) worked out at 1.55 g. Further, in series [1] (STZ-induced diabetic mice), the BUN entry was “decreased the excess peak”, the HDL levels entry is given as “raising HDL levels”, the LDL levels entry is “dramatically reduced” and the creatinine result is given as “decreased the excess peak”. Further, in series [1] (STZ-induced diabetic mice), the “serum ALP” value was “suppressed the enhanced rise”; the “serum ALT” value is “suppressed the enhanced rise”; the “serum AST” value is on record as “suppressed the enhanced rise”; the “histopathology of liver, kidney and pancreas” value is recorded as “healed from the histological injuries”. Besides, in series [1] (STZ-induced diabetic mice), the “effect on body weight of diabetic mice” value was “recovered their bodyweight”. Moreover, in series [1] (setting [2]), the “reduction of total cholesterol” value amounted to 34.9% and the “reduction of total triglycerides” value turned out to be 35.20%. For the same compound, the “effect on body weight of non-diabetic mice” value in series [1] (non-diabetic group) is recorded as “did not affect the body weights”. The same compound returned an insulin levels in series [1] of 10.9 ± 0.25 ng/mL. The half-maximal inhibitory concentration (IC50) against PTP1 B turned out to be 13.2 ± 0.11 µM. Also, 15.4 ± 0.15 µM corresponded to half-maximal inhibition on α-Amylase (IC50). Besides, the concentration for half-maximal inhibition (IC50) at DPP-4 is 0.07 ± 0.03 µM. For the same compound, in the series with mice, the “acute toxicity: allergic reaction” value is on record as “no sign of an allergic reaction”. Besides, the acute toxicity outcome with mice (ip) was “safe and had no adverse effects”. The compound also showed a concentration for half-maximal inhibition (IC50) in the series “Antioxidant (DPPH) test” of 3.31 ± 0.65 µM. In the series with diabetic mice (15.625 µM/kg IP), the “Blood Glucose Level 0 Day” value came out at 22.7 mmole per Liter, the “Blood Glucose Level 7th Day” value is reported as 19.7 mmole per Liter, the “Blood Glucose Level 14th Day” value is on record as 17.6 mmole per Liter and the “Blood Glucose Level 21st Day” value came to 15.1 mmole per Liter. Further, in the series with diabetic mice (31.25 µM/kg IP), the “Blood Glucose Level 0 Day” value came to 22.9 mmole per Liter, the “Blood Glucose Level 7th Day” value worked out at 19.1 mmole per Liter, the “Blood Glucose Level 14th Day” value worked out at 17.1 mmole per Liter and the “Blood Glucose Level 21st Day” value came out at 13.6 mmole per Liter. Further, in the series on diabetic mice (62.5 µM/kg IP), the “Blood Glucose Level 0 Day” value amounted to 23.2 mmole per Liter, the “Blood Glucose Level 7th Day” value stood at 19.3 mmole per Liter, the “Blood Glucose Level 14th Day” value is reported as 16.7 mmole per Liter and the “Blood Glucose Level 21st Day” value is 13.1 mmole per Liter. In the series on diabetic mice (125 µM/kg IP), the “Blood Glucose Level 0 Day” value is 22.6 mmole per Liter, the “Blood Glucose Level 7th Day” value came out at 18.9 mmole per Liter, the “Blood Glucose Level 14th Day” value turned out to be 16.2 mmole per Liter and the “Blood Glucose Level 21st Day” value turned out to be 12.8 mmole per Liter. Besides, in the series on diabetic mice (250 µM/kg IP), the “Blood Glucose Level 0 Day” value is recorded as 22.4 mmole per Liter, the “Blood Glucose Level 7th Day” value was 18.4 mmole per Liter, the “Blood Glucose Level 14th Day” value is given as 15.7 mmole per Liter and the “Blood Glucose Level 21st Day” value worked out at 12.2 mmole per Liter. On α-Glucosidase, this compound showed an IC50 of 7.2 ± 0.92 µM.

With `COc1ccc(Cl)cc1C(=O)NCCc1ccc(S(=O)(=O)NC(=O)NC2CCCCC2)cc1` [Glibenclamide, reference compound], in the series with diabetic mice (250 µM/kg IP), the “Blood Glucose Level 0 Day” value stood at 21.5 mmole per Liter, the “Blood Glucose Level 7th Day” value was found to be 17.7 mmole per Liter, the “Blood Glucose Level 14th Day” value is recorded as 14.5 mmole per Liter and the “Blood Glucose Level 21st Day” value is given as 11.1 mmole per Liter.

For the compound `CN(C)C(=N)N=C(N)N` [Metformin, reference compound], in series [1] (STZ-induced diabetic mice), the “serum ALP” value is reported as “suppressed the enhanced rise”; the “serum ALT” value is listed as “suppressed the enhanced rise”; the “serum AST” value is “suppressed the enhanced rise”; the “histopathology of liver, kidney and pancreas” value is reported as “healed from the histological injuries”. Moreover, the “effect on body weight of diabetic mice” value in series [1] (STZ-induced diabetic mice) was “recovered their bodyweight”. Besides, the insulin levels in series [1] is 12.2 ± 0.29 ng/mL.
